From ChEMBL document CHEMBL1201862, “PubChem BioAssay data set” (2004) come the findings set out here.

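Values below derive from 48-hour exposures of cells grown in 96-well plates, with endpoints linearly interpolated between the two concentrations bracketing the appropriate inhibition level. Here, GI50 denotes the concentration required for 50% inhibition of growth.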 The source made the active and inactive calls. Rule as the data show it: active = GI50 up to about 1.1 µM and inactive = higher.

Common to all, as to test: growth of human tumour cells (NCI), 48 h
In test [1] the test system is A549.
The test system of test [2] is ACHN.
Test [3] concerns BT-549.
Test [4] concerns DU-145.
Test [5] has as its system EKVX.
Test [6] deals with HCT-15.
The test system of test [7] is HOP-62.
Test [8] has as its system HOP-92.
Test [9] has as its system HT-29.
The test system of test [10] is IGROV-1.
For test [11], the system named is KM12.
Test [12] deals with MDA-MB-435.
Test [13] relates to NCI-H23.
The subject of test [14] is OVCAR-4.
Test [15] has as its system SK-MEL-5.
Test [16] has as its system SK-OV-3.
Test [17] relates to SNB-75.
For test [18], the system named is T47D.
The test system of test [19] is TK-10.
Test [20] deals with HCC 2998.

As to `O=C(O)CCC(=O)c1ccc[nH]1`, the GI50 in test [1] is > 100 µM (inactive); in test [2], > 100 µM (inactive); in test [3] it was > 100 µM (inactive); in [4] it was > 100 µM (inactive); in [5] it was > 100 µM (inactive); in test [6] it was more than 100 µM. The GI50 in [7], in test [8], in [9], in test [10], in [11] and in test [12] was > 100 µM (inactive) in each case. Further, the GI50 in test [13], in test [14], in [15], in test [16], in test [17] and in test [18] was > 100 µM (inactive) throughout. For the same compound, in [19], the GI50 was > 100 µM (inactive).

As to `NS(=O)(=O)c1cc(C(=O)O)c(O)c2ccccc12`, the GI50 in test [1] was > 100 µM (inactive); in [2], > 100 µM (inactive); in test [3] it was > 100 µM (inactive); in test [4], > 100 µM (inactive); in test [5], > 100 µM (inactive); in test [6] it was more than 100 µM. The GI50 in test [7], in [8], in [9], in test [10], in test [11] and in test [12] was > 100 µM (inactive) in each case. Also, the GI50 in [13] is > 100 µM (inactive); in [14], > 100 µM (inactive); in test [15] it was > 100 µM (inactive); in test [16], > 100 µM (inactive); in [17], 82.6 µM (inactive); in test [18], > 100 µM (inactive). In test [19], the GI50 is > 100 µM (inactive).

With `Nc1cccc(OCc2nc(N)nc(N)c2-c2ccc(Cl)cc2)c1`, the GI50 in test [1] is 35.8 µM (inactive); in test [2] it was 44.3 µM (inactive); in [3] it was 36.1 µM (inactive); in test [4], 73.1 µM (inactive); in [5], 52.8 µM (inactive); in test [6] it was 39.2 µM. For the same compound, the GI50 in test [7] was > 100 µM (inactive); in [8] it was 31.3 µM (inactive); in test [9], 39.4 µM (inactive); in test [10], 37.3 µM (inactive); in test [11], 57.3 µM (inactive); in test [12] it was 56.4 µM (inactive). The GI50 in test [13] is 43.2 µM (inactive); in test [14], 49.7 µM (inactive); in test [15], 26.9 µM (inactive); in test [16], 89.1 µM (inactive); in [17] it was 32.2 µM (inactive); in test [18], 35.8 µM (inactive). Besides, the GI50 in [19] is 31.5 µM (inactive).

`COc1ccc2c(c1)C(=O)[C@@](Nc1ccc(C=O)cc1)(OC)[C@@](OC)(c1ccc([N+](=O)[O-])cc1)O2`: the GI50 in test [1] was 7.67 µM (inactive); in [2], > 10 µM (inactive); in test [3] it was > 10 µM (inactive); in test [4], > 10 µM (inactive); in [5] it was > 10 µM (inactive); in test [20], > 10 µM (inactive). The GI50 was more than 10 µM in test [6]; > 10 µM (inactive) in test [7]; > 10 µM (inactive) in test [9]; > 10 µM (inactive) in [10]; > 10 µM (inactive) in test [11]; > 10 µM (inactive) in [12]. For the same compound, the GI50 in [13] was > 10 µM (inactive); in [14] it was > 10 µM (inactive); in test [15] it was > 10 µM (inactive); in test [16], > 10 µM (inactive); in test [17] it was 3.91 µM (inactive); in test [18] it was 5.96 µM (inactive). Besides, the GI50 in [19] is > 10 µM (inactive).

Take `CCCc1n[nH]c(=O)n1N1C(=O)C=CC1=O`: the GI50 in test [1] was > 100 µM (inactive); in test [3], 30.5 µM (inactive); in test [4], > 100 µM (inactive); in test [5], > 100 µM (inactive); in test [20], > 100 µM (inactive); in test [6], more than 100 µM. For the same compound, the GI50 in [7], in [10], in [12], in test [13], in [14] and in [15] was > 100 µM (inactive) in each case. Further, the GI50 in test [16], in test [18] and in test [19] was > 100 µM (inactive) each time.

Take `COCc1nc2c(OC)c(-c3nc4ccc(N5CCN(C)CC5)nc4[nH]3)cc(OC)c2n1C`: the GI50 in test [1] is 35.7 µM (inactive); in [2], 17.5 µM (inactive); in test [3], 43.7 µM (inactive); in test [4], 37.7 µM (inactive); in [5] it was 21 µM (inactive); in test [20] it was 14.4 µM (inactive). The GI50 in test [6] is 40.9 µM; in [7], 42.3 µM (inactive); in test [8], > 100 µM (inactive); in test [9] it was 19.9 µM (inactive); in test [10] it was 43.8 µM (inactive); in test [11], 24 µM (inactive). Further, the GI50 is 20.4 µM (inactive) in [12]; 58.3 µM (inactive) in test [13]; 34 µM (inactive) in test [14]; 66.5 µM (inactive) in [16]; 18.5 µM (inactive) in test [17]; 38.6 µM (inactive) in test [18].

For the compound `Nc1c(C(=O)c2ccc(Cl)c(Cl)c2)[nH]c(NCc2ccccc2)c1C(=S)Nc1ccccc1`, the GI50 in [1] is 5.15 µM (inactive); in [2], 12.2 µM (inactive); in test [3], 15.8 µM (inactive); in [4] it was 15.3 µM (inactive); in test [5], 14.7 µM (inactive); in test [20], 1.74 µM (inactive). For the same compound, the GI50 is 2.51 µM in test [6]; 17.3 µM (inactive) in [7]; 3.23 µM (inactive) in [9]; 11.8 µM (inactive) in [10]; 3.18 µM (inactive) in test [11]; 5.08 µM (inactive) in test [12]. The GI50 in test [13] is 18.2 µM (inactive); in test [14], 3.81 µM (inactive); in test [16], 17.2 µM (inactive); in [17], 10 µM (inactive); in test [18], 16.5 µM (inactive); in test [19], 17.8 µM (inactive).

With `CSc1nc(=O)cnn1C`, the GI50 in [1], in [2], in test [3], in [4], in test [5] and in [20] was > 100 µM (inactive) in each case. For the same compound, the GI50 in [6] is more than 100 µM; in test [7], > 100 µM (inactive); in test [9] it was > 100 µM (inactive); in test [10], > 100 µM (inactive); in [11] it was > 100 µM (inactive); in test [12], > 100 µM (inactive). Besides, the GI50 in [13], in test [14], in test [15], in [16], in test [17] and in [18] was > 100 µM (inactive) throughout. Besides, the GI50 in test [19] was > 100 µM (inactive).

As for `C/C(=N\NC(=S)N/N=C(\C)c1ccccn1)c1ccccn1`, the GI50 is 2.18 µM (inactive) in [1]; 1.27 µM (inactive) in [2]; 5.22 µM (inactive) in test [3]; 3.62 µM (inactive) in test [4]; 1.12 µM (inactive) in test [5]; 0.627 µM in test [6]. Also, the GI50 in test [7] was 1.05 µM (active); in test [8], 2.82 µM (inactive); in test [9] it was 0.575 µM (active); in test [10], 4.28 µM (inactive); in [11] it was 1.28 µM (inactive); in test [12], 6.9 µM (inactive). Also, the GI50 in [13] is 4.6 µM (inactive); in test [14], 1.04 µM (active); in test [15], 4.61 µM (inactive); in test [16], 1.31 µM (inactive); in test [17] it was 5.93 µM (inactive); in [18], 6.31 µM (inactive). Further, the GI50 in [19] was > 100 µM (inactive).

On to `CC(=O)Nc1ccc(/N=N\c2c(O)c(S(=O)(=O)O)cc3cc(S(=O)(=O)O)ccc23)cc1`, for which the GI50 is > 100 µM (inactive) in [1]; > 100 µM (inactive) in test [2]; > 100 µM (inactive) in test [3]; > 100 µM (inactive) in test [4]; > 100 µM (inactive) in test [5]; more than 100 µM in test [6]. Besides, the GI50 in [7], in test [8], in test [9], in test [10], in [11] and in [12] was > 100 µM (inactive) in each case. The GI50 in test [13], in [14], in [15], in test [16], in [17] and in test [18] was > 100 µM (inactive) throughout. For the same compound, the GI50 in test [19] was > 100 µM (inactive).

`Cc1cc2cc3cc(C)c(N)cc3nc2cc1N` [ACRIDINE YELLOW]: the GI50 in test [1] is 0.509 µM (active); in [2], 0.365 µM (active); in test [3], 5.52 µM (inactive); in test [4] it was 0.647 µM (active); in [5] it was 0.535 µM (active); in test [6], 0.597 µM. For the same compound, the GI50 in test [7] was 0.465 µM (active); in test [8], 0.726 µM (active); in test [9], 0.359 µM (active); in test [10], 0.244 µM (active); in [11], 0.508 µM (active); in test [12] it was 4.4 µM (inactive). The GI50 in test [13] was 0.794 µM (active); in [14], 0.566 µM (active); in test [15], 2.27 µM (inactive); in test [16] it was 1.34 µM (inactive); in test [17], 1.53 µM (inactive); in test [18], 0.865 µM (active). Also, in test [19], the GI50 is 0.635 µM (active).
